Reference: US20200369728A1, “PEPTIDOMIMETIC MACROCYCLES AND USES THEREOF” (Aileron Therapeutics, Inc., priority 2015, published 2020)
Values belong to the molecule of their own block, whether it stands above or below them. Ends that are not written are not given here.

Experiments:
[1] = MCF-7 breast cancer xenograft study, body weight and deaths; assay type: in vivo, mice
Source text: A negative control stapled peptide.

[2] = test system: SJSA-1; assay: Cell viability assay (MTT), SJSA-1; details: read-out: SJSA-1 EC50 (72 h); 72 h, MTT
[3] = Circular dichroism (CD) analysis of alpha-helicity; assay type: physicochemical; details: for Molar Ellipticity TFE − Molar Ellipticity Benign / Molar Ellipticity 50% TFE (222 in 50% TFE) / Molar Ellipticity Benign (222 in 0% TFE): 222 nm; for Molar Ellipticity 50% TFE (222 in 50% TFE): CD buffer with 50% TFE; for Molar Ellipticity 50% TFE (222 in 50% TFE) / Molar Ellipticity Benign (222 in 0% TFE): 0.05 mg/ml, 4° C.; for Molar Ellipticity Benign (222 in 0% TFE): benign CD buffer (20 mM phosphoric acid, pH 2); for % Helix benign compared to 50% TFE parent (CD): benign buffer
Protocol: Peptide solutions were analyzed by CD spectroscopy using a Jasco J-815 spectropolarimeter (Jasco Inc., Easton, Md.) with the Jasco Spectra Manager Ver. 2 system software. A Peltier temperature controller was used to maintain temperature control of the optical cell. Results are expressed as mean molar ellipticity (deg cm^2 dmol^−1) as calculated from the equation [0]=θobs·MRW/10*l*c where θobs is the observed ellipticity in millidegrees, MRW is the mean residue weight of the peptide (peptide molecular weight/number of residues), 1 is the optical path length of the cell in centimeters, and c is the peptide concentration in mg/ml. Peptide concentrations were determined by amino acid analysis. Stock solutions of peptides were prepared in benign CD buffer (20 mM phosphoric acid, pH 2). The stocks were used to prepare peptide solutions of 0.05 mg/ml in either benign CD buffer or CD buffer with 50% trifluoroethanol (TFE) for analyses in a 10 mm pathlength cell. Variable wavelength measurements of peptide solutions were scanned at 4° C. from 195 to 250 nm, in 0.2 nm increments, and a scan rate 50 nm per minute. The average of six scans was reported.

[4] = test system: RKO; assay: Cell viability assay (MTT), RKO; details: read-out: RKO EC50 (72 h)
[5] = test system: SJSA-1 cells; assay: Cell lysis by peptidomimetic macrocycles (LDH release); assay type: cell-based; details: SJSA-1, 1 h
How it was run: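 SJSA-1 cells plated the day before, switched to RPMI with 1% FBS, then exposed 1 h at 37 °C to macrocycle at final 50 μM to 6.25 μM in 0.5% DMSO. LDH released into the supernatant was measured by kit. Controls: 0.5% DMSO (non-lytic), 10 μM melittin and 1% Triton X-100 (lytic).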

[6] = test system: Caspase 3; assay: Caspase 3 detection assay in SJSA1 cells; assay type: cell-based; details: SJSA1, 48 h, Caspase 3 activation over DMSO-treated cells
[7] = target: T1, MDM2 (In-house, 41 kD) (UniProt Q00987 1-125, limits assumed); assay: competitive fluorescence polarization, displacement of FAM-labeled linear peptide from MDM2; grade decoded by the scale of Table 4
T1 construct: Construct limits and any tag are unknown; also called HDM2
T1 sequence (Q00987 1-125 limits assumed): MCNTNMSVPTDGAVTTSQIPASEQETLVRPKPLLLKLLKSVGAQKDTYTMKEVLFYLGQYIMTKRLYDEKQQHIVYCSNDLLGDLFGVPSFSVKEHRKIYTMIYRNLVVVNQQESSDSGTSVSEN

Molecule: SP154 (LTFAEYWAQAASAA; not fully specified)
- % BW Change ([1]; 30 mg/kg 3x/wk iv, Days 18-39): +5.7%
- No. with ≥10% BW Loss ([1]; 30 mg/kg 3x/wk iv, Days 18-39): 0/10
- No. with ≥20% BW Loss or death ([1]; 30 mg/kg 3x/wk iv, Days 18-39): 0/10
- tolerability of dosing regimen ([1]; 30 mg/kg three times per week iv): well-tolerated
- No. with ≥10% BW Loss ([1]; 40 mg/kg 2x/wk iv, Days 18-39): 0/10
- No. with ≥20% BW Loss or death ([1]; 40 mg/kg 2x/wk iv, Days 18-39): 2/10 (2 deaths)
- tolerability of dosing regimen ([1]; 40 mg/kg twice a week iv): not tolerable
- mice died during treatment ([1]; 40 mg/kg twice a week iv, 10 mice per group): 2

Molecule: CC[C@H](C)[C@H](NC(=O)[C@H](C)NC(=O)[C@H](C)NC(=O)[C@]1(C)CCC/C=C/CCCCCC[C@@](C)(NC(=O)[C@H](Cc2ccccc2)NC(=O)[C@@H](NC(=O)[C@H](CC(C)C)NC(C)=O)[C@@H](C)O)C(=O)N[C@@H](C)C(=O)N[C@@H](Cc2ccc(O)cc2)C(=O)N[C@@H](Cc2c[nH]c3ccccc23)C(=O)N[C@@H](C)C(=O)N[C@@H](CCC(N)=O)C(=O)N[C@@H](CC(C)C)C(=O)N1)C(=O)N[C@H](C)C(N)=O [compound 71]
- EC50 [2]: < 5000 nM
- % Helix 50% TFE compared to 50% TFE parent (CD) [3]: 123.7%
- Molar Ellipticity TFE − Molar Ellipticity Benign [3]: −17835.9 deg cm^2 dmol^−1
- Molar Ellipticity 50% TFE (222 in 50% TFE) [3]: −17957 deg cm^2 dmol^−1
- Molar Ellipticity Benign (222 in 0% TFE) [3]: −121.2 deg cm^2 dmol^−1
- % Helix benign compared to 50% TFE parent (CD) [3]: 0.8%
- EC50 [4]: < 5000 nM
- 6.25 μM % Lysed cells (1 h LDH) [5]: 0%
- 25 μM % Lysed cells (1 h LDH) [5]: 0%
- 50 μM % Lysed cells (1 h LDH) [5]: 0%
- caspase 0.3 μM [6]: 0.95
- caspase 1 μM [6]: 1.02
- caspase 3 μM [6]: 3.68
- caspase 10 μM [6]: 14.72
- caspase 30 μM [6]: 23.52

Molecule: CCCC[C@H](NC(=O)[C@H](C)NC(=O)[C@H](C)NC(=O)[C@]1(C)CCC/C=C/CCCCCC[C@@](C)(NC(=O)[C@H](Cc2ccccc2)NC(=O)[C@@H](NC(=O)[C@H](CC(C)C)NC(C)=O)[C@@H](C)O)C(=O)N[C@@H](C)C(=O)N[C@@H](Cc2ccc(O)cc2)C(=O)N[C@@H](Cc2c[nH]c3ccccc23)C(=O)N[C@@H](C)C(=O)N[C@@H](CCC(N)=O)C(=O)N[C@@H](CC(C)C)C(=O)N1)C(=O)N[C@@H](C)C(N)=O [compound 69]
- EC50 [2]: < 5000 nM
- % Helix 50% TFE compared to 50% TFE parent (CD) [3]: 148.2%
- Molar Ellipticity TFE − Molar Ellipticity Benign [3]: −21407.1 deg cm^2 dmol^−1
- Molar Ellipticity 50% TFE (222 in 50% TFE) [3]: −21509.7 deg cm^2 dmol^−1
- Molar Ellipticity Benign (222 in 0% TFE) [3]: −102.6 deg cm^2 dmol^−1
- % Helix benign compared to 50% TFE parent (CD) [3]: 0.7%
- EC50 [4]: < 5000 nM
- 6.25 μM % Lysed cells (1 h LDH) [5]: 1%
- 25 μM % Lysed cells (1 h LDH) [5]: −0.5%
- 50 μM % Lysed cells (1 h LDH) [5]: 5%
- caspase 0.3 μM [6]: 4.34
- caspase 1 μM [6]: 9.51
- caspase 3 μM [6]: 16.39
- caspase 10 μM [6]: 26.59
- caspase 30 μM [6]: 26.11

B7: SP595, Ac-LTF$r8EYWAQCba$S-NH2 (peptide)
peptide: LTFAEYWAQAAS
modifications: not fully specified; N-terminal acetyl; $r8 at 4 crosslinked by all-carbon olefin staple to $ at 11; Cba (cyclobutyl alanine) at 10; C-terminal amide
notes: stapled peptidomimetic macrocycle
- Ki [7]: > 1000 nM

B9: SP609, Ac-LTF$r8EYWAAibL$AAAAAa-NH2 (peptide)
peptide: LTFAEYWAXLAAAAAAA
modifications: not fully specified; N-terminal acetyl; $r8 at 4 crosslinked by all-carbon olefin staple to $ at 11; Aib (2-aminoisobutyric acid) at 9; D-Ala (a) at C-terminus; C-terminal amide
notes: as for B7
- Ki [7]: ≤ 10 nM

Continued, values first:

- Ki [7]: ≤ 10 nM
B1: SP612, Ac-LTF$r8EYWACitL$AAAAAa-NH2 (peptide)
peptide: LTFAEYWAXLAAAAAAA
modifications: not fully specified; N-terminal acetyl; $r8 at 4 crosslinked by all-carbon olefin staple to $ at 11; Cit (citrulline) at 9; D-Ala (a) at C-terminus; C-terminal amide
notes: as for B7

- Ki [7]: ≤ 10 nM
B2: SP433, Ac-LTF$r8EYWCou7QCba$SAA-NH2 (peptide)
peptide: LTFAEYWXQAASAA
modifications: not fully specified; N-terminal acetyl; $r8 at 4 crosslinked by all-carbon olefin staple to $ at 11; Cou7 at 8 (structure shown only as a drawing); Cba (cyclobutyl alanine) at 10; C-terminal amide
notes: as for B7

- Ki [7]: ≤ 10 nM
B3: SP608, Ac-LTF$r8EYWALL$AAAAAa-NH2 (peptide)
peptide: LTFAEYWALLAAAAAAA
modifications: not fully specified; N-terminal acetyl; $r8 at 4 crosslinked by all-carbon olefin staple to $ at 11; D-Ala (a) at C-terminus; C-terminal amide
notes: as for B7

- Ki [7]: ≤ 10 nM
B4: SP613, Ac-LTF$r8EYWAHL$AAAAAa-NH2 (peptide)
peptide: LTFAEYWAHLAAAAAAA
modifications: not fully specified; N-terminal acetyl; $r8 at 4 crosslinked by all-carbon olefin staple to $ at 11; D-Ala (a) at C-terminus; C-terminal amide
notes: as for B7

- Ki [7]: ≤ 10 nM
B5: SP610, Ac-LTF$r8EYWASL$AAAAAa-NH2 (peptide)
peptide: LTFAEYWASLAAAAAAA
modifications: not fully specified; N-terminal acetyl; $r8 at 4 crosslinked by all-carbon olefin staple to $ at 11; D-Ala (a) at C-terminus; C-terminal amide
notes: as for B7

- Ki [7]: ≤ 10 nM
B6: SP611, Ac-LTF$r8EYWANL$AAAAAa-NH2 (peptide)
peptide: LTFAEYWANLAAAAAAA
modifications: not fully specified; N-terminal acetyl; $r8 at 4 crosslinked by all-carbon olefin staple to $ at 11; D-Ala (a) at C-terminus; C-terminal amide
notes: as for B7

- Ki [7]: ≤ 10 nM
B8: SP686, 5-TAMRA-BaLTF$r8EYWAQCba$SAA-NH2 (peptide)
peptide: ALTFAEYWAQAASAA
modifications: not fully specified; N-terminal 5-TAMRA on beta-alanine (Ba); $r8 crosslinked by all-carbon olefin staple to $; Cba (cyclobutyl alanine); C-terminal amide
notes: TAMRA-labeled stapled peptidomimetic macrocycle
